{"source": "patent US20110251066A1", "about": "“ISOXAZOLE DERIVATIVES FOR USE AS PLANT GROWTH REGULATORS” (SYNGENTA CROP PROTECTION LLC, priority 2008, published 2011)", "key": {"[1]": {"test": "PGR activity of separated enantiomers (test not specified)", "settings": "(R)- versus (S)-enantiomer of compound 146"}, "[2]": {"system": "grape seedlings cultivar (cv.) Gutedel", "test": "Plant growth regulation effects on grape seedlings", "assay_type": "in vivo", "settings": "200 ppm, spray chamber, 8 days at 22° C. and 80% r.h.", "procedure": "Five weeks old grape seedlings cultivar (cv.) Gutedel were treated with the formulated test compound in a spray chamber. After an incubation period of 8 days at 22° C. and 80% relative humidity (r.h.) in a greenhouse, the plant growth regulating effects were assessed."}, "Rhizoctonia solani": {"system": "Rhizoctonia solani", "test": "Fungal growth inhibition in nutrient broth, microtiter plate, photometric", "assay_type": "cell-based", "settings": "200 ppm, 24° C., 48 h", "procedure": "Rhizoctonia solani (foot rot, damping-off): Mycelial fragments of the fungus, prepared from a fresh liquid culture, were directly mixed into nutrient broth (PDB potato dextrose broth). After placing a (DMSO) solution of the test compounds into a microtiter plate (96-well format) the nutrient broth containing the fungal mycelium was added. The test plates were incubated at 24° C. and the inhibition of growth was determined photometrically after 48 h. Compound (S)-(146) gave at least 80% control of Rhizoctonia solani at 200 ppm."}, "Mycosphaerella arachidis": {"system": "Mycosphaerella arachidis", "test": "Fungal growth inhibition in nutrient broth, microtiter plate, photometric", "assay_type": "cell-based, Mycosphaerella arachidis (syn. Cercospora arachidicola)", "settings": "200 ppm, 24° C., 72 hours, 620 nm", "procedure": "(§1) Mycosphaerella arachidis (syn. Cercospora arachidicola), Brown leaf spot of groundnut (peanut): Conidia of the fungus from cryogenic storage were directly mixed into nutrient broth (PDB potato dextrose broth). After placing a (DMSO) solution of the test compounds into a microtiter plate (96-well format) the nutrient broth containing the fungal spores was added. The test plates were incubated at 24° C. and the inhibition of growth was determined photometrically after 72 hours at 620 nm. Compound (S)-(146) gave at least 80% control of Mycosphaerella arachidis at 200 ppm."}, "Septoria tritici": {"system": "Septoria tritici", "test": "Fungal growth inhibition in nutrient broth, microtiter plate, photometric", "assay_type": "cell-based", "settings": "200 ppm, 24° C., 72 hours", "procedure": "as §1, with “Septoria tritici (leaf blotch):” for “Mycosphaerella arachidis (syn. Cercospora arachidicola), Brown leaf spot of groundnut (peanut):”, “hours.” for “hours at 620 nm.”, “Septoria tritici” for “Mycosphaerella arachidis”"}, "Monographella nivalis": {"system": "Monographella nivalis", "test": "Fungal growth inhibition in nutrient broth, microtiter plate, photometric", "assay_type": "cell-based", "settings": "200 ppm, 24° C., 72 hours, 620 nm", "procedure": "as §1, with “Monographella nivalis” for “Mycosphaerella arachidis”, “Microdochium nivale, Fusarium nivale), snow mould, foot rot” for “Cercospora arachidicola), Brown leaf spot”, “cereals:” for “groundnut (peanut):”"}, "Botrytis cinerea": {"system": "Botrytis cinerea", "test": "Fungal growth inhibition in nutrient broth, microtiter plate, photometric", "assay_type": "cell-based", "settings": "200 ppm, 24° C., 72 hours", "procedure": "as §1, with “Botrytis cinerea (Gray mould):” for “Mycosphaerella arachidis (syn. Cercospora arachidicola), Brown leaf spot of groundnut (peanut):”, “hours.” for “hours at 620 nm.”, “Botrytis cinerea” for “Mycosphaerella arachidis”"}, "Fusarium culmorum": {"system": "Fusarium culmorum", "test": "Fungal growth inhibition in nutrient broth, microtiter plate, photometric", "assay_type": "cell-based", "settings": "200 ppm, 24° C., 48 hours", "procedure": "as §1, with “Fusarium culmorum (root rot):” for “Mycosphaerella arachidis (syn. Cercospora arachidicola), Brown leaf spot of groundnut (peanut):”, “48 hours.” for “72 hours at 620 nm.”, “Fusarium culmorum” for “Mycosphaerella arachidis”"}, "winter wheat": {"system": "winter wheat", "test": "Plant growth effects on cereals: spray at beginning of stem elongation, visual growth reduction", "assay_type": "in vivo", "settings": "225 g a.i./ha spray, 28 days after spray, visually evaluated versus untreated control", "from_the_text": "(§2) Plants of winter wheat and summer wheat were sprayed at the beginning of stem elongation, three weeks after sowing. Formulated test compounds 144, 145 and 146 were sprayed at 225 g a.i. (active ingredient)/ha, each, top over leaf with a boom sprayer on the plants. After the spray the plants were transferred to a greenhouse and 28 days after the spray the plant growth reduction was visually evaluated versus an untreated control."}, "summer wheat": {"system": "summer wheat", "test": "Plant growth effects on cereals: spray at beginning of stem elongation, visual growth reduction", "assay_type": "in vivo", "settings": "225 g a.i./ha spray, 28 days after spray, visually evaluated versus untreated control", "from_the_text": "as §2"}, "[3]": {"system": "wheat plants cultivar (cv.). Riband", "test": "Plant growth regulation effects on wheat plants", "assay_type": "in vivo", "settings": "200 ppm, spray chamber, 8 days at 22° C. and 80% r.h.", "procedure": "Two weeks old wheat plants cultivar (cv.). Riband were treated with the formulated test compound in a spray chamber. After an incubation period of 8 days at 22° C. and 80% relative humidity (r.h.) in a greenhouse, the plant growth regulating effects were assessed."}}, "data": [{"smiles": "O[C@H](c1cccnc1)c1c(-c2ccc(Cl)cc2F)noc1-c1ccc(F)cc1F", "note": "(single isomer, unassigned) [Compound 153]", "values": [{"measurement": "PGR activity, enantiomer comparison", "setting": "[1]", "result": "majority of PGR activity"}, {"measurement": "plant growth regulating effect (plant height)", "setting": "[2]", "result": "plant height decreased"}]}, {"smiles": "O[C@@H](c1cccnc1)c1c(-c2ccc(Cl)cc2F)noc1-c1ccc(F)cc1F", "note": "(single isomer, unassigned) [Compound (S)-(146)]", "values": [{"measurement": "control of Rhizoctonia solani", "setting": "Rhizoctonia solani", "result": "at least 80%"}, {"measurement": "control of Mycosphaerella arachidis", "setting": "Mycosphaerella arachidis", "result": "at least 80%"}, {"measurement": "control of Septoria tritici", "setting": "Septoria tritici", "result": "at least 80%"}, {"measurement": "control of Monographella nivalis", "setting": "Monographella nivalis", "result": "at least 80%"}, {"measurement": "control of Botrytis cinerea", "setting": "Botrytis cinerea", "result": "at least 80%"}, {"measurement": "control of Fusarium culmorum", "setting": "Fusarium culmorum", "result": "at least 80%"}]}, {"smiles": "OC(c1cncnc1)c1c(-c2ccc(Cl)cc2F)noc1-c1ccc(F)cc1F", "note": "(stereo not drawn) [Compound 144]", "values": [{"measurement": "Winter Wheat % reduction (plant growth reduction)", "setting": "winter wheat", "result": 7.5, "unit": "%"}, {"measurement": "Summer Wheat % reduction (plant growth reduction)", "setting": "summer wheat", "result": 10, "unit": "%"}, {"measurement": "plant growth regulating effect (plant height)", "setting": "[2]", "result": "plant height decreased"}, {"measurement": "plant growth regulating effect (plant height)", "setting": "[3]", "result": "plant height decreased"}]}, {"smiles": "OC(c1cncnc1)c1c(-c2ccc(Cl)cc2)noc1-c1ccc(F)cc1F", "note": "(stereo not drawn) [Compound 145]", "values": [{"measurement": "Winter Wheat % reduction (plant growth reduction)", "setting": "winter wheat", "result": 5, "unit": "%"}, {"measurement": "Summer Wheat % reduction (plant growth reduction)", "setting": "summer wheat", "result": 17.5, "unit": "%"}, {"measurement": "plant growth regulating effect (plant height)", "setting": "[2]", "result": "plant height decreased"}]}, {"smiles": "OC(c1cccnc1)c1c(-c2ccc(Cl)cc2F)noc1-c1ccc(F)cc1F", "note": "(stereo not drawn) [Compound 146, 3-(2-Fluoro-4-Chlorophenyl)-5-(2,4-difluorophenyl)-4-[(3-pyridyl)hydroxymethyl]-isoxazole]", "values": [{"measurement": "Winter Wheat % reduction (plant growth reduction)", "setting": "winter wheat", "result": 10, "unit": "%"}, {"measurement": "Summer Wheat % reduction (plant growth reduction)", "setting": "summer wheat", "result": 10, "unit": "%"}, {"measurement": "melting point", "result": "138 to 140", "unit": "°C"}]}, {"smiles": "OC(c1cncnc1)c1c(-c2ccc(Cl)cc2Cl)noc1-c1ccccc1Cl", "note": "(stereo not drawn) [Compound 147, 3-(2,4-Chlorophenyl)-5-(2-Chlorophenyl)-4-[(3-pyrimidyl)hydroxymethyl]-isoxazole]", "values": [{"measurement": "plant growth regulating effect (plant height)", "setting": "[2]", "result": "plant height decreased"}]}, {"smiles": "OC(c1cncnc1)c1c(-c2ccc(Cl)cc2F)noc1-c1ccccc1Cl", "note": "(stereo not drawn) [Compound 148, 3-(2-Fluoro-4-Chlorophenyl)-5-(2-Chlorophenyl)-4-[(3-pyrimidyl)hydroxymethyl]-isoxazole]", "values": [{"measurement": "plant growth regulating effect (plant height)", "setting": "[2]", "result": "plant height decreased"}]}, {"smiles": "COc1ncccc1-c1onc(-c2ccc(Cl)cc2)c1C(O)c1cncnc1", "note": "(stereo not drawn) [Compound 149, 3-(4-Chlorophenyl)-5-(2-Methoxypyridine)-4-[(3-pyrimidyl)hydroxymethyl]-isoxazole]", "values": [{"measurement": "plant growth regulating effect (plant height)", "setting": "[2]", "result": "plant height decreased"}]}, {"smiles": "OC(c1cncnc1)c1c(-c2ccc(Cl)cc2)noc1-c1ccc(F)cc1", "note": "(stereo not drawn) [Compound 150, 3-(4-Chlorophenyl)-5-(4-Fluorophenyl)-4-[(3-pyrimidyl)hydroxymethyl]-isoxazole]", "values": [{"measurement": "plant growth regulating effect (plant height)", "setting": "[2]", "result": "plant height decreased"}]}, {"smiles": "OC(c1cncnc1)c1c(-c2ccc(Cl)cc2)noc1-c1ccc(F)cc1F", "note": "(stereo not drawn) [Compound 151, 3-(4-Chlorophenyl)-5-(2,4-Fluorophenyl)-4-[(3-pyrimidyl)hydroxymethyl]-isoxazole]", "values": [{"measurement": "plant growth regulating effect (plant height)", "setting": "[2]", "result": "plant height decreased"}]}, {"smiles": "OC(c1cccnc1)c1c(-c2ccc(F)cc2F)noc1-c1ccc(F)cc1Cl", "note": "(stereo not drawn) [Compound 152, 3-(2,4-Diluoro)-5-(2-Chloro-4-Fluorophenyl)-4-[(3-pyridyl)hydroxymethyl]-isoxazole]", "values": [{"measurement": "plant growth regulating effect (plant height)", "setting": "[2]", "result": "plant height decreased"}]}]}
